Tests used:
Format in all cases: ADME
[1] = (§1) The drug is tested on Bacteroides vulgatus strain: DSM1447 for biotransformation under anaerobic condition. The drug concentrations were measured over 6 timepoints collected between 0 and 12 hours of incubation by liquid-chromatography-coupled mass spectrometry (LC–MS); design: dose 5 uM, timepoint 0, 1.5, 3, 6, 9, 12 hours; details: phocaeicola vulgatus, 5 µM
[2] = (§2) The drug is tested on Lactobacillus paracasei strain: ATCC27092 for biotransformation under microaerobic condition. The drug concentrations were measured over 6 timepoints collected between 0 and 12 hours of incubation by liquid-chromatography-coupled mass spectrometry (LC–MS); design: dose 5 uM, timepoint 0, 1.5, 3, 6, 9, 12 hours; details: lacticaseibacillus paracasei, 5 µM
[3] = as §2, with “the gut metagenome community of A-09 with ENA study accession number: PRJEB31790” for “Lactobacillus paracasei strain: ATCC27092”, “7” for “6”; design: dose 5 uM, timepoint 0, 0.75, 1.5, 3, 6, 9, 12 hours; details: 5 µM
[4] = The drug is tested on Bacteroides caccae strain: DSM19024 for biotransformation under anaerobic condition. The drug concentrations were measured over 6 timepoints collected between 0 and 12 hours of incubation by liquid-chromatography-coupled mass spectrometry (LC–MS); design: dose 5 uM, timepoint 0, 1.5, 3, 6, 9, 12 hours; details: 5 µM
[5] = The drug is tested on Lactobacillus gasseri strain: DSM20243 for biotransformation under anaerobic condition. The drug concentrations were measured over 6 timepoints collected between 0 and 12 hours of incubation by liquid-chromatography-coupled mass spectrometry (LC–MS); design: dose 5 uM, timepoint 0, 1.5, 3, 6, 9, 12 hours; details: 5 µM
[6] = as §1, with “the gut metagenome community of P-03 with ENA study accession number: PRJEB31790” for “Bacteroides vulgatus strain: DSM1447”, “7” for “6”; design: dose 5 uM, timepoint 0, 0.75, 1.5, 3, 6, 9, 12 hours; details: 5 µM
[7] = as §2, with “the gut metagenome community of P-02 with ENA study accession number: PRJEB31790” for “Lactobacillus paracasei strain: ATCC27092”, “7” for “6”; design: dose 5 uM, timepoint 0, 0.75, 1.5, 3, 6, 9, 12 hours; details: 5 µM
[8] = as §1, with “the gut metagenome community of A-06 with ENA study accession number: PRJEB31790” for “Bacteroides vulgatus strain: DSM1447”, “7” for “6”; design: dose 5 uM, timepoint 0, 0.75, 1.5, 3, 6, 9, 12 hours; details: 5 µM
[9] = The drug is tested on Lactobacillus paracasei strain: ATCC27092 for biotransformation under anaerobic condition. The drug concentrations were measured over 6 timepoints collected between 0 and 12 hours of incubation by liquid-chromatography-coupled mass spectrometry (LC–MS); design: dose 5 uM, timepoint 0, 1.5, 3, 6, 9, 12 hours; details: lacticaseibacillus paracasei, 5 µM
[10] = The drug is tested on Streptococcus sanguinis strain: DSM20567 for biotransformation under anaerobic condition. The drug concentrations were measured over 6 timepoints collected between 0 and 12 hours of incubation by liquid-chromatography-coupled mass spectrometry (LC–MS); design: dose 5 uM, timepoint 0, 1.5, 3, 6, 9, 12 hours; details: 5 µM
[11] = The drug is tested on Bacteroides uniformis strain: DSM6597 for biotransformation under anaerobic condition. The drug concentrations were measured over 6 timepoints collected between 0 and 12 hours of incubation by liquid-chromatography-coupled mass spectrometry (LC–MS); design: dose 5 uM, timepoint 0, 1.5, 3, 6, 9, 12 hours; details: 5 µM
[12] = The drug is tested on Lactobacillus fermentum strain: DSM20052 for biotransformation under anaerobic condition. The drug concentrations were measured over 6 timepoints collected between 0 and 12 hours of incubation by liquid-chromatography-coupled mass spectrometry (LC–MS); design: dose 5 uM, timepoint 0, 1.5, 3, 6, 9, 12 hours; details: limosilactobacillus fermentum, 5 µM
[13] = as §1, with “the gut metagenome community of A-02 with ENA study accession number: PRJEB31790” for “Bacteroides vulgatus strain: DSM1447”, “7” for “6”; design: dose 5 uM, timepoint 0, 0.75, 1.5, 3, 6, 9, 12 hours; details: 5 µM
[14] = The drug is tested on Eubacterium rectale strain: DSM17629 for biotransformation under anaerobic condition. The drug concentrations were measured over 6 timepoints collected between 0 and 12 hours of incubation by liquid-chromatography-coupled mass spectrometry (LC–MS); design: dose 5 uM, timepoint 0, 1.5, 3, 6, 9, 12 hours; details: agathobacter rectalis, 5 µM
[15] = The drug is tested on Dorea formicigenerans strain: DSM3992 for biotransformation under anaerobic condition. The drug concentrations were measured over 6 timepoints collected between 0 and 12 hours of incubation by liquid-chromatography-coupled mass spectrometry (LC–MS); design: dose 5 uM, timepoint 0, 1.5, 3, 6, 9, 12 hours; details: 5 µM
[16] = The drug is tested on Blautia hansenii strain: DSM20583 for biotransformation under anaerobic condition. The drug concentrations were measured over 6 timepoints collected between 0 and 12 hours of incubation by liquid-chromatography-coupled mass spectrometry (LC–MS); design: dose 5 uM, timepoint 0, 1.5, 3, 6, 9, 12 hours; details: 5 µM
[17] = The drug is tested on Collinsella aerofaciens strain: DSM3979 for biotransformation under anaerobic condition. The drug concentrations were measured over 6 timepoints collected between 0 and 12 hours of incubation by liquid-chromatography-coupled mass spectrometry (LC–MS); design: dose 5 uM, timepoint 0, 1.5, 3, 6, 9, 12 hours; details: 5 µM
[18] = The drug is tested on Gemella haemolysans strain: DSM107751 for biotransformation under microaerobic condition. The drug concentrations were measured over 6 timepoints collected between 0 and 12 hours of incubation by liquid-chromatography-coupled mass spectrometry (LC–MS); design: dose 5 uM, timepoint 0, 1.5, 3, 6, 9, 12 hours; details: 5 µM
[19] = as §2, with “the gut metagenome community of T-04 with ENA study accession number: PRJEB31790” for “Lactobacillus paracasei strain: ATCC27092”, “7” for “6”; design: dose 5 uM, timepoint 0, 0.75, 1.5, 3, 6, 9, 12 hours; details: 5 µM
[20] = as §1, with “the gut metagenome community of P-02 with ENA study accession number: PRJEB31790” for “Bacteroides vulgatus strain: DSM1447”, “7” for “6”; design: dose 5 uM, timepoint 0, 0.75, 1.5, 3, 6, 9, 12 hours; details: 5 µM
[21] = as §1, with “the gut metagenome community of A-08 with ENA study accession number: PRJEB31790” for “Bacteroides vulgatus strain: DSM1447”, “7” for “6”; design: dose 5 uM, timepoint 0, 0.75, 1.5, 3, 6, 9, 12 hours; details: 5 µM
[22] = The drug is tested on Bifidobacterium longum strain: DSM20088 for biotransformation under anaerobic condition. The drug concentrations were measured over 6 timepoints collected between 0 and 12 hours of incubation by liquid-chromatography-coupled mass spectrometry (LC–MS); design: dose 5 uM, timepoint 0, 1.5, 3, 6, 9, 12 hours; details: 5 µM
[23] = The drug is tested on Bacteroides fragilis strain: DSM2151 for biotransformation under anaerobic condition. The drug concentrations were measured over 6 timepoints collected between 0 and 12 hours of incubation by liquid-chromatography-coupled mass spectrometry (LC–MS); design: dose 5 uM, timepoint 0, 1.5, 3, 6, 9, 12 hours; details: 5 µM
[24] = as §2, with “the gut metagenome community of A-03 with ENA study accession number: PRJEB31790” for “Lactobacillus paracasei strain: ATCC27092”, “7” for “6”; design: dose 5 uM, timepoint 0, 0.75, 1.5, 3, 6, 9, 12 hours; details: 5 µM
[25] = as §1, with “the gut metagenome community of T-04 with ENA study accession number: PRJEB31790” for “Bacteroides vulgatus strain: DSM1447”, “7” for “6”; design: dose 5 uM, timepoint 0, 0.75, 1.5, 3, 6, 9, 12 hours; details: 5 µM
[26] = as §1, with “the gut metagenome community of T-05 with ENA study accession number: PRJEB31790” for “Bacteroides vulgatus strain: DSM1447”, “7” for “6”; design: dose 5 uM, timepoint 0, 0.75, 1.5, 3, 6, 9, 12 hours; details: 5 µM
[27] = as §2, with “the gut metagenome community of T-05 with ENA study accession number: PRJEB31790” for “Lactobacillus paracasei strain: ATCC27092”, “7” for “6”; design: dose 5 uM, timepoint 0, 0.75, 1.5, 3, 6, 9, 12 hours; details: 5 µM
[28] = The drug is tested on Clostridium scindens strain: DSM5676 for biotransformation under anaerobic condition. The drug concentrations were measured over 6 timepoints collected between 0 and 12 hours of incubation by liquid-chromatography-coupled mass spectrometry (LC–MS); design: dose 5 uM, timepoint 0, 1.5, 3, 6, 9, 12 hours; details: 5 µM
[29] = The drug is tested on Actinomyces graevenitzii strain: DSM15540 for biotransformation under microaerobic condition. The drug concentrations were measured over 6 timepoints collected between 0 and 12 hours of incubation by liquid-chromatography-coupled mass spectrometry (LC–MS); design: dose 5 uM, timepoint 0, 1.5, 3, 6, 9, 12 hours; details: 5 µM
[30] = as §2, with “the gut metagenome community of A-02 with ENA study accession number: PRJEB31790” for “Lactobacillus paracasei strain: ATCC27092”, “7” for “6”; design: dose 5 uM, timepoint 0, 0.75, 1.5, 3, 6, 9, 12 hours; details: 5 µM

Row | Bacterial Biotransformation [1] | Bacterial Biotransformation [2] | Bacterial Biotransformation [3] | Bacterial Biotransformation [4] | Bacterial Biotransformation [5] | Bacterial Biotransformation [6] | Bacterial Biotransformation [7] | Bacterial Biotransformation [8] | Bacterial Biotransformation [9] | Bacterial Biotransformation [10] | Bacterial Biotransformation [11] | Bacterial Biotransformation [12] | Bacterial Biotransformation [13] | Bacterial Biotransformation [14] | Bacterial Biotransformation [15] | Bacterial Biotransformation [16] | Bacterial Biotransformation [17] | Bacterial Biotransformation [19] | Bacterial Biotransformation [20] | SMILES | Bacterial Biotransformation [18] | also measured
1 | Compound NOT metabolized | Compound NOT metabolized | Compound metabolized | Compound NOT metabolized | Compound NOT metabolized | Compound metabolized | Compound metabolized | Compound metabolized | Compound NOT metabolized | Compound NOT metabolized | Compound NOT metabolized | Compound NOT metabolized | Compound metabolized | Compound NOT metabolized | Compound NOT metabolized | Compound NOT metabolized | Compound NOT metabolized | Compound NOT metabolized | Compound metabolized | C[C@]12C=CC(=O)C=C1CC[C@@H]1[C@@H]2C(=O)C[C@@]2(C)[C@H]1CC[C@]2(O)C(=O)CO [PREDNISONE] | Compound NOT metabolized | Bacterial Biotransformation [21]: Compound metabolized; Bacterial Biotransformation [22]: Compound NOT metabolized; Bacterial Biotransformation [23]: Compound NOT metabolized; Bacterial Biotransformation [24]: Compound metabolized; Bacterial Biotransformation [25]: Compound NOT metabolized; Bacterial Biotransformation [26]: Compound metabolized; Bacterial Biotransformation [27]: Compound metabolized; Bacterial Biotransformation [28]: Compound metabolized; Bacterial Biotransformation [29]: Compound NOT metabolized; Bacterial Biotransformation [30]: Compound metabolized
2 | Compound NOT metabolized | Compound NOT metabolized | Compound metabolized | Compound NOT metabolized | Compound NOT metabolized | Compound NOT metabolized | Compound NOT metabolized | Compound metabolized | Compound NOT metabolized | Compound NOT metabolized | Compound NOT metabolized | Compound NOT metabolized | Compound metabolized | Compound NOT metabolized | Compound metabolized | Compound metabolized | Compound metabolized | Compound NOT metabolized | Compound NOT metabolized | CO[C@H]1C[C@@H]2CC[C@@H](C)[C@@](O)(O2)C(=O)C(=O)N2CCCC[C@H]2C(=O)O[C@H]([C@H](C)C[C@@H]2CC[C@@H](OCCO)[C@H](OC)C2)CC(=O)[C@H](C)/C=C(\C)[C@@H](O)[C@@H](OC)C(=O)[C@H](C)C[C@H](C)/C=C/C=C/C=C/1C [EVEROLIMUS] | Compound NOT metabolized | Bacterial Biotransformation [21]: Compound metabolized; Bacterial Biotransformation [22]: Compound NOT metabolized; Bacterial Biotransformation [23]: Compound NOT metabolized; Bacterial Biotransformation [24]: Compound metabolized; Bacterial Biotransformation [25]: Compound NOT metabolized; Bacterial Biotransformation [26]: Compound NOT metabolized; Bacterial Biotransformation [27]: Compound NOT metabolized; Bacterial Biotransformation [28]: Compound metabolized; Bacterial Biotransformation [29]: Compound NOT metabolized; Bacterial Biotransformation [30]: Compound metabolized
3 | Compound NOT metabolized | Compound NOT metabolized | Compound metabolized | Compound NOT metabolized | Compound NOT metabolized | Compound metabolized | Compound NOT metabolized | Compound metabolized | Compound NOT metabolized | Compound NOT metabolized | Compound NOT metabolized | Compound NOT metabolized | Compound metabolized | Compound NOT metabolized | Compound NOT metabolized | Compound NOT metabolized | Compound NOT metabolized | Compound NOT metabolized | Compound metabolized | CN(Cc1cnc2nc(N)nc(N)c2n1)c1ccc(C(=O)N[C@@H](CCC(=O)O)C(=O)O)cc1 [METHOTREXATE] | Compound NOT metabolized | Bacterial Biotransformation [21]: Compound metabolized; Bacterial Biotransformation [22]: Compound NOT metabolized; Bacterial Biotransformation [23]: Compound NOT metabolized; Bacterial Biotransformation [24]: Compound NOT metabolized; Bacterial Biotransformation [25]: Compound NOT metabolized; Bacterial Biotransformation [26]: Compound metabolized; Bacterial Biotransformation [27]: Compound metabolized; Bacterial Biotransformation [28]: Compound NOT metabolized; Bacterial Biotransformation [29]: Compound NOT metabolized; Bacterial Biotransformation [30]: Compound metabolized
